Test results from the supplement of paper PMC4954754.
Values joined by “and” are separate entries in the source; they are usually repeats but may differ in a detail not shown here. Identical values can stand only once.

The compounds below were run on HEK293T-Rex ERSE-FLuc (assay: EC50 for ERSE-FLuc reporter activation). Settings: 18 h.
Procedure: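 Dose-response of hit compounds in HEK293T-Rex cells stably expressing ERSE-FLuc or XBP1-RLuc reporters, 18 hr treatment, 1536-well; luminescence normalised to 500 nM thapsigargin (100%) and DMSO (0%), fitted to give EC50 (M) and maximal activation; '>' marks EC50 above the top tested dose (~17 µM).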

| Compound | EC50 for ERSE-FLuc reporter activation |
| --- | --- |
| Cc1ccc(O)c(NC(=O)c2cc(CC(C)C)on2)c1 | 3.94 µM |
| Oc1ccc(-c2cn3ccccc3n2)cc1O | 18.4 µM |
| O=C(COC(=O)c1ccc(O)c(O)c1)Nc1nc(-c2ccccc2)cs1 | > 18.2 µM |
| CCCCCCOc1ccc(/C(C)=N/NC2=NCCN2)cc1[N+](=O)[O-] | > 16.9 µM |
| Oc1ccc(-c2csc(-c3ccccc3)n2)cc1O | 5.39 µM |
| NC(=O)c1c(NC(=O)c2cccc3ccccc23)sc2c1CCC2 | > 16.9 µM |
| CCCCNc1ncnc2c1cnn2-c1ccc(Cl)cc1 | > 19.5 µM |
| CCOC(=O)c1sc(NC(=O)c2cccc3ccccc23)nc1C | > 16.9 µM |
| CCN(CC)c1ccc2cc(-c3nc4ccccc4n3C)c(=O)oc2c1 | > 10.6 µM |
| O=c1[nH]c(COc2ccccc2)nc2sc3c(c12)CCCC3 | > 16.3 µM |
| COc1ccc(/C=C(\C#N)c2nc(-c3ccco3)cs2)cc1O | > 16.7 µM |
| N/C(=N\N=C\c1ccc(O)c(O)c1)c1nonc1N | 5.38 µM |
| O=C1N/C(=C/c2ccc(O)cc2)C(=O)N1Cc1ccc(Br)cc1 | > 15.8 µM |
| CC(=O)N1CCc2c([nH]c3ccccc23)C12CCN(CCCOc1ccccc1)CC2 | 2.94 µM |
| Cc1ccc(Nc2nc(N)c3ccccc3n2)cc1Cl | 10 µM |
| Nc1ccc2sc(-c3cc(Cl)c(N)c(Cl)c3)nc2c1 | > 16.9 µM |
| CS(=O)(=O)c1ncc(Cl)c(C(=O)C(C#N)c2nc3ccccc3s2)n1 (stereo unspecified) | 2.49 µM |
| CCC(=O)N(Cc1cc2cc(C)ccc2n2nnnc12)C1CCCC1 | > 16.9 µM |
| Cc1ccc(O)c(NC(=O)c2cc(C3CC3)on2)c1 | 2.02 µM |
| CCn1c(/C(C#N)=C/c2ccc(OC)cc2)nc2ccccc21 | > 19.4 µM |
| O=C1N/C(=C/c2ccc(O)cc2)C(=O)N1c1cccc(Cl)c1 | 3.19 µM |
| Nc1ccc2nc(-c3cc(Cl)c(N)c(Cl)c3)[nH]c2c1 | > 13 µM |

| Compound | EC50 for ERSE-FLuc reporter activation |
| --- | --- |
| Oc1ccc(/C=N/Nc2cccc(Cl)n2)c(O)c1 | > 16.9 µM |
| O=C(CCc1ccccc1)Nc1ccc(Cl)cn1 | > 17.7 µM |
| CCCNC(=O)c1cc(-c2cccs2)on1 | 7.59 µM |
| COc1cn(-c2ccc(F)cc2)nc1C(=O)Nc1ccccc1SC | 6.64 µM |
| Cc1ccc(O)c(NC(=O)CCc2ccccc2)c1 | 4.16 µM |
| C/C(=N\NC(=O)c1n[nH]c2c1CCCC2)c1ccc(Br)cc1 | > 16.9 µM |
| C=CCn1c(N2CCC(C(=O)NCCc3ccc(O)c(O)c3)CC2)nc2ccccc21 | 8.27 µM |
| Cc1ccc(-c2csc(Nc3ccc(O)cc3)n2)cc1 | > 16.9 µM |
| CCc1nc2sc(C(=O)c3ccccc3)c(N)c2cc1C | > 16.3 µM |
| O=[N+]([O-])c1ccccc1N/N=C/c1ccc(O)c(O)c1 | > 16.9 µM |
| CC(C)CNC(=O)c1cc(-c2ccc(F)cc2)no1 | > 16.9 µM |
| COc1ccc(/C=C(\C#N)c2nc3ccccc3n2C)cc1 | > 16.9 µM |
| CCOc1cccc(/C=C2\NC(=S)N(C)C2=O)c1O | > 16.9 µM |
| CC(=O)Oc1ccc(C(=O)OCc2ccc(Cl)cc2)cc1OC(C)=O | > 18.6 µM |
| Cc1ccc(O)c(N/C=C/C(=O)c2ccc(F)cc2)c1 | 3.31 µM |
| O=C1c2cc(O)ccc2-c2ccc(O)cc21 | 8.44 µM |
| COc1ccc(-c2cnnc(N/N=C/c3ccc(O)c(O)c3)n2)cc1 | 14.7 µM |
| O=C(N/N=C/c1cccc(O)c1O)c1ccccn1 | > 18.4 µM |
| Nc1ccc2nc(-c3ccc(Br)cc3)[nH]c2c1 | 12.5 µM |
| C=CCNC(=O)c1cc(-c2cccs2)on1 | 5.28 µM |
| Cc1ccc(O)c(NC(=O)CN(C)S(=O)(=O)c2ccc(Cl)cc2)c1 | > 16.9 µM |
| N#C/C(=C(/O)c1cc(-c2ccccc2)nc2ccccc12)c1nc2ccccc2[nH]1 | > 15.9 µM |

| Compound | EC50 for ERSE-FLuc reporter activation |
| --- | --- |
| O=C(/C=C/c1ccco1)Nc1ccccn1 | > 16.9 µM |
| COc1ccccc1/C=C/C(=O)Nc1ccc(Cl)cn1 | > 15.1 µM |
| Cc1cc2nc(/C(C#N)=C/c3ccco3)[nH]c2cc1C | > 16.9 µM |
| N#Cc1c(NC(=O)c2ccc(Br)cc2)sc2c1CCCC2 | > 12.7 µM |
| O=C(Nc1ccc(O)cc1)c1c(O)c2c([nH]c1=O)CCCC2 | > 16.1 µM |
| NC(=O)c1c(NC(=O)/C=C/c2ccccc2)sc2c1CCCCC2 | > 16.9 µM |
| Cc1ccccc1-c1cc(=O)c2cc(Cl)ccc2o1 | > 17 µM |
| CCOc1cccc(C(=O)Nc2ccc(Br)cn2)c1 | > 15.1 µM |
| O=C(N/N=C\C(Cl)=C\c1ccccc1)c1n[nH]c2c1CCCC2 | > 16.9 µM |
| COc1ccc(/C=C/c2nc3cc([N+](=O)[O-])ccc3s2)cc1O | > 18.5 µM |
| CCOc1ccc2nc(NC(=O)c3ccn(C)n3)sc2c1 | > 14.4 µM |
| COc1c(O)cc2oc(-c3ccc(O)c(O)c3)cc(=O)c2c1O | 3.69 µM |
| C(=N/Nc1nnc2c(n1)[nH]c1ccccc12)/c1c[nH]c2ccccc12 | > 16.9 µM |
| Nc1nc(Nc2ccccc2)cc(-c2ccccc2)n1 | > 17.2 µM |
| Cc1ccc2nc(/C(C#N)=C/c3ccc(O)c(O)c3)[nH]c2c1 | > 16.9 µM |
| COc1ccc(/C(C)=N/OC/C(O)=C(\C#N)c2nc3ccccc3[nH]2)cc1OC | > 17.2 µM |
| O=C(/C=C/c1ccco1)Nc1ccc(Br)cc1Cl | > 16.9 µM |
| N#Cc1ccc(-c2cccs2)nc1SCc1ccccn1 | > 16.4 µM |
| O=C1/C(=C/c2ccc(O)c(O)c2)Oc2cc(O)ccc21 | > 16.9 µM |
| Nc1cn(-c2ccccc2)nc1-c1cccs1 | > 19.6 µM |
| CC(C)c1ccc(/C=N\NC(=O)c2ccccc2)cc1 | > 16.9 µM |
| CCN(CC)c1ccc(NC(=O)c2cccc(OC)c2)cc1 | > 17.8 µM |

| Compound | EC50 for ERSE-FLuc reporter activation |
| --- | --- |
| CN(c1ccccc1)S(=O)(=O)c1cccc(C(=O)NCCc2ccc(O)c(O)c2)c1 | 6.56 µM |
| CN(C)/C=N/C1=C(C#N)C(c2ccc3c(c2)OCO3)c2ccc3ccccc3c2O1 (stereo unspecified) | > 16.6 µM |
| Nc1ccc2nc(/C=C/c3ccccc3)[nH]c2c1 | > 15.3 µM |
| CN(C)c1ccc(C(=NO)c2ccc(N(C)C)cc2)cc1 | > 17.1 µM |
| CC(=O)Oc1cc(N2CCOCC2)c(OC(C)=O)c2c1C(=O)c1ccccc1C2=O | > 16.9 µM |
| Cc1nc(-c2coc3c(O)c(O)ccc3c2=O)cs1 | > 16.9 µM |
| CN(C)c1ccc(/C=C/C(=O)NC(=O)c2ccccc2OC(=O)c2ccccc2)cc1 | > 12.9 µM |
| Oc1cccc(Nc2nc(-c3ccc(O)c(O)c3)cs2)c1 | 12.5 µM |
| Cc1ccccc1NC(=O)c1sc2nc(N)c(C#N)c(-c3ccc(C(C)C)cc3)c2c1N | 4.01 µM |
| Cc1ccc(C)c(/C=N/Nc2nncc3ccccc23)c1 | > 17.1 µM |
| COc1ccc(CCNC(=O)c2cccc(-c3ccc(N4CCOCC4)nc3)c2)cc1 | > 17 µM |
| O=C(NC1CCCC1)c1cc(-c2cccs2)on1 | 13.4 µM |
| COc1cccc(/C=N\NC(=O)c2n[nH]c3c2CCC3)c1 | > 16.6 µM |
| C=CCNC(=O)c1cc(-c2ccc(F)cc2)on1 | 16.7 µM |
| COc1ccc(C2=Nn3c(nnc3-c3ccc(OC)cc3)SC2)cc1 | > 16.9 µM |
| Cc1ccc(O)c(-c2cc(C(F)(F)C(F)F)no2)c1 | 7.56 µM |
| Cc1ccc2nc(/C(C#N)=C\c3cc(Cl)cc4c3OCOC4)[nH]c2c1 | > 16 µM |
| O=c1cc(-c2ccc(O)c(O)c2)oc2ccccc12 | > 17.1 µM |
| C/C=C(/C)C(=O)O[C@H]1C(C)=C2[C@H]([C@@H]1OC(=O)CCCCCCC)[C@@](C)(OC(C)=O)C[C@H](OC(=O)CCC)[C@@]1(O)[C@H]2OC(=O)[C@@]1(C)O | 0.07 µM and 0.0669 µM |
| O=c1[nH]c(/C=C2\C=Nc3ccccc32)c(O)n1-c1cccc(Cl)c1 | 2.5 µM |
